Experiments:
ALK5 = target: T1, ALK5 (Homo sapiens, UniProt P36897); assay: ALK5 enzyme inhibition assay (casein substrate, 10 uM ATP, 33P-ATP, filter-binding; Reaction Biology Corp); format: biochemical
T1 construct: purchased Reaction Biology Corp (Malvern, Pa.)
T1 sequence (P36897 34-503): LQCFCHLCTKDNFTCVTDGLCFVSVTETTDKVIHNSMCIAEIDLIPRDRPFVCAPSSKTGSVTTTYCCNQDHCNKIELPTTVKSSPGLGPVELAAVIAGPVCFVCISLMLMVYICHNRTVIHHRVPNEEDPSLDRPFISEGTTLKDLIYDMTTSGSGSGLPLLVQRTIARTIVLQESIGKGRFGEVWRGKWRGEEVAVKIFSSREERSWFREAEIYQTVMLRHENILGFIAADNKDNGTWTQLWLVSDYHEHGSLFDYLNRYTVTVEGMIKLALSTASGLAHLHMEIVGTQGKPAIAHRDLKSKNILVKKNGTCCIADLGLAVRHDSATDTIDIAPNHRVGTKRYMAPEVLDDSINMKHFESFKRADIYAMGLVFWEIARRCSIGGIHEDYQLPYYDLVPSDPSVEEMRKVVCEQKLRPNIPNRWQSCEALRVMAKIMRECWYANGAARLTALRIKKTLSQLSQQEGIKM
Protocol: ALK5 enzyme inhibition assays were performed by Reaction Biology Corp (Malvern, Pa.). 1 mg/mL of peptide substrate (casein) and 10 uM ATP were prepared in a mixture of fresh reaction buffer. The kinase was delivered into the substrate solution which was gently mixed. Compounds in 100% DMSO were added to the kinase reaction mixture by Acoustic technology (Echo550; nanoliter range) and the mixture was incubated for 20 min at room temperature. ^33P-ATP (Specific activity 10 uCi/uL) was added into the reaction mixture to initiate the reaction and the reaction mixture was incubated for 2 hours at room temperature. Radioactivity was detected by filter-binding method and kinase activity data were expressed as the percent remaining kinase activity in test samples compared to vehicle (dimethyl sulfoxide) reactions. IC50 values and curve fits were obtained using Prism (GraphPad Software).

[1] = system: TGFβ/SMAD Signaling Pathway SBE reporter cell line; assay: TGFb reporter assay in HEK293 SBE-LUC reporter cells (luciferase); format: cell-based; settings: Homo sapiens, key of the table says IC50, read-out: EC50 (the source's name)
Protocol: TGFβ/SMAD Signaling Pathway SBE reporter cell line was obtained from BPS Bioscience. Cells are passed, expanded, and stored in liquid nitrogen as per the supplier's instructions with the exception that growth media is changed to DMEM-C with Geneticin (DMEM supplemented with 10% fetal bovine serum, 1×NEAA, 1 mM Pyruvate, 2 mM glutamine, 50 μg/mL penicillin, 50 U/mL streptomycin and 400 μg/mL of Geneticin). The assay media is MEM supplemented with 0.5% fetal bovine serum, 1×NEAA, 1 mM Pyruvate, 50 μg/mL penicillin and 50 U/mL streptomycin.
Compounds are assayed to measure their activity as ALK5 inhibitors.
The HEK293 SBE-LUC reporter cells from Example 15 were grown in DMEM-C with Geneticin (DMEM supplemented with […], 1×NEAA, 1 mM Pyruvate, 2 mM glutamine, 50 μg/mL penicillin, 50 U/mL streptomycin and 400 ug/mL of Geneticin). The assay media was MEM supplemented with 0.5% fetal bovine serum, 1×NEAA, 1 mM Pyruvate, 50 μg/mL penicillin and 50 U/mL streptomycin.
The HEK293 SBE-LUC reporter cells were harvested from the tissue culture flasks by incubation in small quantity of Versene at room temperature for three to five minutes after the media in the flask is removed and cells rinsed with PBS. Cells were counted and diluted in the assay media at ˜0.8×10^6 cells/mL then 50 uL/well were added to 96-well assay plate. Test samples (at desired concentrations diluted in assay media) were added to assay plate containing the 50 uL/well of cells (or media only), 50 uL per well, and incubated for 5-6 hours at 37° C. in a 5% CO2 humidified incubator. After that time, 15 uL of TGFb diluted to 12.5 ng/mL in the assay media was added to the plate. Controls included TGFb titration (from 25 to 0 ng/mL) without inhibitors, and media only (without cells, inhibitor or TGFb). Plates were incubated at 37° C. in a 5% CO2 humidified incubator for 18h. Luciferase substrate solution was subsequently added at 75 uL per well, incubated in dark with shaking at room temperature for 10 min, and luminescence was measured using a luminometer.

| SMILES | IC50 (ALK5; Table 12) [nM] | IC50 [1] [nM] | IC50 (ALK5; Table 11) [nM] |
| --- | --- | --- | --- |
| Cc1cccc(-c2nc(CNCc3cccc(Cl)c3)[nH]c2-c2ccc3ncnn3c2)n1 [Compound 2] |  | 10 to 100 | 100 to 1000 |
| Cc1cccc(-c2nc(CNCc3ccc(Cl)cc3)[nH]c2-c2ccc3ncnn3c2)n1 [Compound 3] |  | 10 to 100 | 1000 to 10000 |
| Cc1cccc(-c2nc(CNCc3ccc(Cl)c(Cl)c3)[nH]c2-c2ccc3ncnn3c2)n1 [Compound 4] |  | 100 to 1000 | 100 to 1000 |
| Cc1cccc(-c2nc(CNCc3cc(Cl)ccc3Cl)[nH]c2-c2ccc3ncnn3c2)n1 [Compound 5] |  | 10 to 100 | 50 to 100 |
| Cc1cccc(-c2nc(CNCc3c(Cl)cccc3Cl)[nH]c2-c2ccc3ncnn3c2)n1 [Compound 6] |  | 0.1 to 10 | 0.1 to 50 |
| COc1cccc(CNCc2nc(-c3cccc(C)n3)c(-c3ccc4ncnn4c3)[nH]2)c1 [Compound 7] |  | 0.1 to 10 | 100 to 1000 |
| COc1ccc(CNCc2nc(-c3cccc(C)n3)c(-c3ccc4ncnn4c3)[nH]2)cc1 [Compound 8] |  | 100 to 1000 | 1000 to 10000 |
| COc1ccc(OC)c(CNCc2nc(-c3cccc(C)n3)c(-c3ccc4ncnn4c3)[nH]2)c1 [Compound 9] |  | 10 to 100 | 100 to 1000 |
| Cc1cccc(-c2nc(CNCc3ccccc3Cl)[nH]c2-c2ccn3ncnc3c2)n1 [Compound 10] |  | 0.1 to 10 | 0.1 to 50 |
| Cc1cccc(-c2nc(CN[C@H](C)c3ccccc3)[nH]c2-c2ccc3ncnn3c2)n1 [Compound 11] |  | 10 to 100 | 100 to 1000 |
| Cc1cccc(-c2nc(CN[C@@H](C)c3ccccc3)[nH]c2-c2ccc3ncnn3c2)n1 [Compound 12] |  | 100 to 1000 | 1000 to 10000 |
| Cc1cccc(-c2nc(CNC(c3ccccc3)c3ccccc3)[nH]c2-c2ccc3ncnn3c2)n1 [Compound 13] |  | 0.1 to 10 | 50 to 100 |
| Cc1cccc(-c2nc(CN[C@@H](CO)c3ccccc3)[nH]c2-c2ccc3ncnn3c2)n1 [Compound 14] |  | 10 to 100 | 50 to 100 |
| COC(=O)[C@H](NCc1nc(-c2cccc(C)n2)c(-c2ccc3ncnn3c2)[nH]1)c1ccccc1 [Compound 15] |  | 100 to 1000 | 50 to 100 |
| COC(=O)[C@@H](NCc1nc(-c2cccc(C)n2)c(-c2ccc3ncnn3c2)[nH]1)c1ccccc1 [Compound 16] |  | 100 to 1000 | 0.1 to 50 |
| COc1ccccc1CNCc1nc(-c2cccc(C)n2)c(-c2ccc3ncnn3c2)[nH]1 [Compound 17] |  | 10 to 100 | 50 to 100 |
| Cc1cccc(-c2nc(CNCc3ccccc3F)[nH]c2-c2ccc3ncnn3c2)n1 [Compound 18] |  | 0.1 to 10 | 0.1 to 50 |
| Cc1cccc(-c2nc(CNCc3ccccc3C#N)[nH]c2-c2ccc3ncnn3c2)n1 [Compound 20] |  | 100 to 1000 | 1000 to 10000 |
| Cc1cccc(-c2nc(CNCc3ccccc3C)[nH]c2-c2ccc3ncnn3c2)n1 [Compound 21] |  | 0.1 to 10 | 0.1 to 50 |
| CCc1ccccc1CNCc1nc(-c2cccc(C)n2)c(-c2ccc3ncnn3c2)[nH]1 [Compound 22] |  | 0.1 to 10 | 0.1 to 50 |
| Cc1cccc(-c2nc(CNCc3ccccc3C(C)C)[nH]c2-c2ccc3ncnn3c2)n1 [Compound 23] |  | 0.1 to 10 | 50 to 100 |
| Cc1cccc(-c2nc(CNCc3ccccc3-c3ccccc3)[nH]c2-c2ccc3ncnn3c2)n1 [Compound 24] |  | 0.1 to 10 | 0.1 to 50 |
| Cc1cccc(-c2nc(CNCc3ccccc3N(C)C)[nH]c2-c2ccc3ncnn3c2)n1 [Compound 25] |  | 0.1 to 10 | 100 to 1000 |
| Cc1cccc(-c2nc(CNCc3ccccc3OC(F)(F)F)[nH]c2-c2ccc3ncnn3c2)n1 [Compound 26] |  | 0.1 to 10 | 0.1 to 50 |
| Cc1cccc(-c2nc(CNCc3ccccc3CC(F)(F)F)[nH]c2-c2ccc3ncnn3c2)n1 [Compound 27] |  | 0.1 to 10 | 50 to 100 |

Now from value to compound:

| IC50 (ALK5; Table 12) [nM] | IC50 [1] [nM] | IC50 (ALK5; Table 11) [nM] | SMILES |
| --- | --- | --- | --- |
| 100 to 1000 | 10 to 100 |  | Cc1cccc(-c2nc(CNC3CCCOC3)[nH]c2-c2ccc3ncnn3c2)n1 (stereo not shown) [Compound 1.15] |
| 100 to 1000 | 10 to 100 |  | Cc1cccc(-c2nc(CNC3CCCCC3C)[nH]c2-c2ccc3ncnn3c2)n1 (stereo not shown) [Compound 1.16] |
| 100 to 1000 | 100 to 1000 |  | Cc1cccc(-c2nc(CNc3cccc4c3C(N)CC4)[nH]c2-c2ccc3ncnn3c2)n1 (stereo not shown) [Compound 1.20] |
| 100 to 1000 | 100 to 1000 |  | Cc1cccc(-c2nc(CNc3ccc4c(c3)C(N)CC4)[nH]c2-c2ccc3ncnn3c2)n1 (stereo not shown) [Compound 1.21] |
| 1000 to 10000 | 100 to 1000 |  | Cc1cccc(-c2nc(CNc3cccc4c3CC(N)C4)[nH]c2-c2ccc3ncnn3c2)n1 (stereo not shown) [Compound 1.22] |
| 10 to 100 | 100 to 1000 |  | CC(=O)NC1Cc2cccc(NCc3nc(-c4cccc(C)n4)c(-c4ccc5ncnn5c4)[nH]3)c2C1 (stereo not shown) [Compound 1.23] |
| 100 to 1000 | 100 to 1000 |  | Cc1cccc(-c2nc(CNc3ccc4c(c3)CC(N)C4)[nH]c2-c2ccc3ncnn3c2)n1 (stereo not shown) [Compound 1.24] |
| 100 to 1000 | 10 to 100 |  | Cc1cccc(-c2nc(CN[C@@H]3CCc4ccccc43)[nH]c2-c2ccn3ncnc3c2)n1 [Compound 1.30] |
| 100 to 1000 | 100 to 1000 |  | Cc1cccc(-c2nc(CNc3cccc4c3CNC4)[nH]c2-c2ccn3ncnc3c2)n1 [Compound 1.31] |
| 10 to 100 | 100 to 1000 |  | Cc1cccc(-c2nc(CN[C@H]3CCCC[C@@H]3F)[nH]c2-c2ccn3ncnc3c2)n1 [Compound 1.32] |
| 100 to 1000 | 100 to 1000 |  | Cc1cccc(-c2nc(CN[C@H]3CCCC[C@H]3F)[nH]c2-c2ccn3ncnc3c2)n1 [Compound 1.33] |
| 100 to 1000 | 100 to 1000 |  | Cc1cccc(-c2nc(CN[C@H]3CCc4ccccc43)[nH]c2-c2ccn3ncnc3c2)n1 [Compound 1.34] |
| 1000 to 10000 | 100 to 1000 |  | Cc1cccc(-c2nc(C3CCCNC3)[nH]c2-c2ccc3ncnn3c2)n1 (stereo not shown) [Compound 1.48] |
| 1000 to 10000 | 100 to 1000 |  | Cc1cccc(-c2nc(C3CCN(C(=O)OC(C)(C)C)C3)[nH]c2-c2ccc3ncnn3c2)n1 (stereo not shown) [Compound 1.51] |
| 1000 to 10000 | 100 to 1000 |  | Cc1cccc(-c2nc(C3CN(C(=O)OC(C)(C)C)C3)[nH]c2-c2ccc3ncnn3c2)n1 [Compound 1.52] |
| 1000 to 10000 | 1000 to 10000 |  | Cc1cccc(-c2nc(C34CCC(N)(CC3)CC4)[nH]c2-c2ccc3ncnn3c2)n1 [Compound 1.55] |

Source: patent US20210130473A1, “TGFßR1 INHIBITOR-ASGR ANTIBODY CONJUGATES AND USES THEREOF” (Silverback Therapeutics, Inc., priority 2019, published 2021)
